Data taken from patent US4198405A, “Prostaglandine derivatives” (priority 1978, dated 1980).
“Also recorded” adds a separate entry of the source.

Key:
ICR-JCL female mice = test: Acute toxicity (LD50), intravenous injection; type: in vivo; settings: for survival of mice (acute toxicity) / abnormality observed: 400 mg/kg; for survival of mice (acute toxicity): 10 mice; for LD50 (in words): 7 days, Litchfield-Wilcoxon graph method
Experimental: Acute toxicities (LD50) of PGFE,PGFE-4AC and PGFE-3A are measured by intravenous injections at a dose of 400 mg/kg to ten of ICR-JCL female mice (4 weeks age).
(§1) Acute toxicity (LD50) and abnormal tachycardia, respirogram and electrocardiogram by a biophysiograph were tested.
In the measurement of LD50, 10ICR-JCL female mice (4 week age) were used as one group. 0.2 ml of 50% ethanol-saline solution containing the drug of this invention was intravenously injected to the mice at several doses during 7 days to obtain their value of LD50 by Litchfield-Wilcoxon graph method.

ICR-JCL pregnant mice [1] = test: Side-effect test: tachycardia, respirogram and electrocardiogram by biophysiograph; type: in vivo; settings: for abnormal condition in tachycardia, respirogram and electrocardiogram: mice in pregnancy, before and after administration; for tachycardia, respirogram and electrocardiogram compared with control: intravenous
Experimental: The tachycardia, respirogram and electrocardiogram of mice in pregnancy before and after the administration of PGF2 α, PGFE, PGFE-4AC and PGFE-3AC are tested by a biophysiograph 180-4(4ch) (manufactured by San-ei Sokuki K.K.).
as §1
Electrocardiogram was measured by a biophysiograph 180-4 (4 ch) (manufactured by San-ei Sokuki K.K.) for ICR-JCL pregnant mice (6th day) at 3 minutes after the administration of each sample.
In the test, 0.2 ml of 50% ethanol-saline solution was intravenously injected to the mice at a dose of 30γ per mouse. As the reference, the PGF2 α was also used as the sample (a dose of 15γ per mouse).
The results of the measurements are shown in FIGS. 2 to 5 wherein mV is given on ordinate and time (second) is given on abscissas and the chart speed was 250 mm/sec.

estrogen receptor = test: Competitive receptor assay with 3H-estradiol in rabbit uterus; type: binding; settings: for binding to the estrogen receptor: in accordance with the method of Example 1
Experimental: Binding function of estradiol and the PGFE to each uterus of rabbit were measured by the competitive receptor assay. Estradiol labelled by tritium (^3 H) was incubated with uterus of rabbit to bind it and then, estradiol or the PGFE was added to the system to measure the amount of free ^3 H-estradiol which was replaced by the added estradiol or the PGFE.

ICR-JCL pregnant mice [2] = test: Abortion test, intravenous injection once a day during 4 days (Table 1); type: in vivo; settings: i.v. once a day
Experimental: The abortion was studied with ICR-JCL pregnant mice by the continuous administration of the drug during 4 days and the side-effect in the administration was also examined. After 0.2 ml of 50% ethanol-saline solution containing the PGFE at dose 10γ and 30γ/mouse or PGF2 α at dose 15γ/mouse(equimole of PGFE 30γ) was intravenously injected to the mice once a day during 4 days, their breedings were continued to confirm the abortion of the group administrated with the drugs until the partus of the control group administrated with only ethanol saline solution.

ICR-JCL pregnant mice [3] = test: Efficiency of abortion, summary in words of the tests in pregnant mice; type: in vivo; settings: for abortion (in words): continuous administration during 4 days; for abortion effect in comparison with PGF2 α: suitable administrations and doses; for efficiency of abortion compared with PGF2 α: intravenous and subcutaneous, 4 days
Experimental: The efficiency of abortion of PGFE,PGFE-4AC and PGFE-3AC are tested as pharmacological effects in suitable administrations and doses by using ICR-JCL pregnant mice.
(§2) The continuous administrations were applied to ICR-JCL mice of the sixth day of pregnancy (5 mice as one group) to examine the efficiency of the abortion obtained by the drugs of this invention in comparison with that of PGF2 α. After 0.2 ml of 5% ethanol-saline solution containing the PGFE-3AC, the PGFE-4AC or PGF2 α was given to the mice once a day during 4 days by intravenous injection and subcutaneous injection at some dose, their breeding were continued to confirm the abortion of the group administrated with the drugs until the partus of the control group administrated with only ethanol saline solution.

rats (uterus) = test: Hysterotrimus and cardiac activity by intravenous injection to rats
[4] = system: ICR-JCL mice of the sixth day of pregnancy; test: Test of abortion by subcutaneous injection, 4 days (Table 2); type: in vivo; settings: s.c. once a day
Experimental: as §2, with “[…],” for “PGFE-3AC,”, “PGFE-4AC” left out

[5] = system: ICR-JCL mice of the sixth day of pregnancy; test: Test of abortion by intravenous injection, 4 days (Table 3); type: in vivo; settings: i.v. once a day
Experimental: as §2, with “[…],” for “PGFE-3AC,”, “PGFE-4AC” left out

[6] = 30γ/mouse, 3 minutes after administration
[7] = in accordance with the method of Example 1

| Structure (SMILES) | survival of mice (acute toxicity) (ICR-JCL female mice) | abnormal condition in tachycardia, respirogram and electrocardiogram (ICR-JCL pregnant mice [1]) | abortion (in words) (ICR-JCL pregnant mice [3]; same dose as PGF2 α or less) | abortion effect in comparison with PGF2 α (ICR-JCL pregnant mice [3]) | Efficiency of abortion ([4]; 15 .tau./mouse) | Result of parturition (5 mice in group) ([4]; 15 .tau./mouse) | Efficiency of abortion ([4]; 30 .tau./mouse) | Result of parturition (5 mice in group) ([4]; 30 .tau./mouse) | Efficiency of abortion ([5]; 2.5 .tau./mouse) | Result of parturition (5 mice in group) ([5]; 2.5 .tau./mouse) | Efficiency of abortion ([5]; 5.0 .tau./mouse) | Result of parturition (5 mice in group) ([5]; 5.0 .tau./mouse) | abnormality observed (ICR-JCL female mice) | LD50 (in words) (ICR-JCL female mice) | tachycardia, respirogram and electrocardiogram compared with control (ICR-JCL pregnant mice [1]; [6]) | efficiency of abortion compared with PGF2 α (ICR-JCL pregnant mice [3]) | binding to the estrogen receptor (estrogen receptor) | hysterotrimus (rats (uterus); [7]) | other results |
| --- | --- | --- | --- | --- | --- | --- | --- | --- | --- | --- | --- | --- | --- | --- | --- | --- | --- | --- | --- |
| CCCCC[C@H](O)/C=C/[C@@H]1[C@@H](C/C=C\CCCC(=O)OCC(=O)O[C@H]2CC[C@H]3[C@@H]4CCc5cc(O)ccc5[C@H]4CC[C@]23C)[C@@H](O)C[C@H]1O [PGFE, estra-1,3,5(10)-triene-3-hydroxy-17-oxycarbonylmethyl-9α,11α,15α-trihydroxy-5(cis)-13(trans)prostadienoate] | All of mice (10) are survived | any abnormal condition is not observed | satisfied results are obtained | greatly superior effect | – | – | – | – | – | – | – | – | – | – | – | – | – | – | binding function to estrogen receptor (estrogen receptor; uterus of rabbit, displacement of 3H-estradiol, FIG. 1): has the binding function to estrogen receptor as the same with the estradiol itself; Effect of abortion (ICR-JCL pregnant mice [2]; 10 γ/mouse): 100%; Result of parturition (5 mice in group) (ICR-JCL pregnant mice [2]; 10 γ/mouse): 0; Effect of abortion (ICR-JCL pregnant mice [2]; 30 γ/mouse): 100%; Result of parturition (5 mice in group) (ICR-JCL pregnant mice [2]; 30 γ/mouse): 0; hysterotrimus (rats (uterus); 5 to 50γ (printed "5 L to 50γ"), intravenous, rats): gaved of the hysterotrimus; cardiac activity (rats (uterus); 50γ, intravenous, rats): the cardiac activity was in the normal condition; beginning of hysterotrimus in comparison with PGF2 α (rats (uterus); intravenous, rats): some delay in the beginning of hystrotrimus; side-effect (rats (uterus); up to 50γ, intravenous, rats): no side-effect was found |
| CCCCC[C@H](O)/C=C/[C@@H]1[C@@H](C/C=C\CCCC(=O)O)[C@@H](O)C[C@H]1O [PGF2 α, 9α,11α,15α-trihydroxy-5(cis)-13(trans)-prostadienoic acid, reference compound] | – | abnormal conditions are clearly observed | – | – | 0% | 5 | 20% | 4 | 0% | 5 | 0% | 5 | – | – | – | – | – | – | tachycardia, respirogram and electrocardiogram compared with control (ICR-JCL pregnant mice [1]; 15γ/mouse, 3 minutes after administration (FIG. 3)): abnormally different from those of the control; Effect of abortion (ICR-JCL pregnant mice [2]; 15 γ/mouse): 0%; Result of parturition (5 mice in group) (ICR-JCL pregnant mice [2]; 15 γ/mouse): 5; Efficiency of abortion ([5]; 15.0 .tau./mouse): 20%; Result of parturition (5 mice in group) ([5]; 15.0 .tau./mouse): 4; abortion (in words) (ICR-JCL pregnant mice [3]; 15α (4.24×10^-8 moles)/mouse): The abortion is incomplete; cardiac activity (rats (uterus); 5γ, intravenous, rats): cardiac stop was caused; hysterotrimus (rats (uterus); 5γ, intravenous, rats): gaved of the hysterotrimus |
| CCCCC[C@@H](/C=C/[C@@H]1[C@@H](C/C=C\CCCC(=O)OCC(=O)O[C@H]2CC[C@H]3[C@@H]4CCc5cc(O)ccc5[C@H]4CC[C@]23C)[C@@H](OC(C)=O)C[C@H]1OC(C)=O)OC(C)=O [PGFE-3AC, estra-1,3,5(10)-triene-3-hydroxy-17-oxycarbonylmethyl-9α,11α,15α-triacetoxy-5(cis)-13(trans)-prostadienoate] | all of the mice were survived | any abnormal condition is not observed | satisfied results are obtained | greatly superior effect | 100% | 0 | – | – | 60% | 2 | 100% | 0 | any abnormality was not observed | too high to be impossible to measure directly | substantially the same with those of the control | remarkably superior | – | – | survival of mice (acute toxicity) (ICR-JCL female mice; listed as PGFE-3A): All of mice (10) are survived; Efficiency of abortion ([5]; 1.0 .tau./mouse): 20%; Result of parturition (5 mice in group) ([5]; 1.0 .tau./mouse): 4 |
| CCCCC[C@H](O)/C=C/[C@@H]1[C@@H](C/C=C\CCCC(=O)OC2CC[C@H]3[C@@H]4CCc5cc(O)ccc5[C@H]4CC[C@]23C)[C@@H](O)C[C@H]1O (stereo partly shown) [Example 2] | – | – | – | – | – | – | – | – | – | – | – | – | – | – | – | – | bonded to the estrogen receptor | cause hysterotrimus | – |
| CCCCC[C@H](O)/C=C/[C@H]1[C@H](O)CC(=O)[C@@H]1C/C=C\CCCC(=O)OCC(=O)OCC(=O)[C@H]1CC[C@H]2[C@@H]3CCC4=CC(=O)CC[C@]4(C)[C@H]3CC[C@]12C [PGE2 P] | – | – | – | – | – | – | – | – | – | – | – | – | – | – | – | – | bonded to the estrogen receptor | cause hysterotrimus | – |
| CCCCC[C@@H](/C=C/[C@@H]1[C@@H](C/C=C\CCCC(=O)OCC(=O)O[C@H]2CC[C@H]3[C@@H]4CCc5cc(OC(C)=O)ccc5[C@H]4CC[C@]23C)[C@@H](OC(C)=O)C[C@H]1OC(C)=O)OC(C)=O [PGFE-4AC, estra-1,3,5(10)-triene-3-acetoxy-17-oxycarbonylmethyl-9α,11α,15α-triacetoxy-5(cis)-13(trans)prostadienoate] | all of the mice were survived; also recorded: All of mice (10) are survived | any abnormal condition is not observed | satisfied results are obtained | greatly superior effect | 100% | 0 | 100% | 0 | 40% | 3 | 100% | 0 | any abnormality was not observed | too high to be impossible to measure directly | substantially the same with those of the control | remarkably superior | – | – | – |
